Data taken from the supplement of paper PMC10307832.

What was measured:
Assay in all cases: relative viability (nuclei count vs DMSO), 5 days (fraction); higher = more cells survive
NCI-H520 = system: NCI-H520
Method in brief: (§1)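 A single step with final 0.05% Triton X-100, 1% formaldehyde and 1 ug/ml Hoechst fixed the cells and stained nuclei 5 days after treatment. Lung cancer cell lines in 1536-well plates had been treated by pin tool the day after seeding with one drug alone or a fixed anchor-drug dose plus five library-drug doses (not always all listed) in √10 steps, and nuclei were counted on 4× images. Relative viability is the ratio of nuclei in treated wells to nuclei in vehicle wells, taken as the median of duplicate plates.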

NCI-H1623 = system: NCI-H1623
Method in brief: as §1

NCI-H1648 = system: NCI-H1648
Method in brief: as §1

A549 = system: A549
Method in brief: as §1

Structure (SMILES) | relative viability (NCI-H520; first compound 0.04 µM) | relative viability (NCI-H520; first compound 0.1265 µM) | relative viability (NCI-H520; first compound 0.4 µM) | relative viability (NCI-H520; first compound 4 µM) | relative viability (NCI-H1623; first compound 0.04 µM) | relative viability (NCI-H1623; first compound 0.1265 µM) | relative viability (NCI-H1623; first compound 0.4 µM) | relative viability (NCI-H1623; first compound 4 µM) | relative viability (NCI-H1648; first compound 0.04 µM) | relative viability (NCI-H1648; first compound 0.1265 µM) | relative viability (NCI-H1648; first compound 0.4 µM) | relative viability (NCI-H1648; first compound 4 µM) | relative viability (A549; first compound 0.04 µM) | relative viability (A549; first compound 0.1265 µM) | relative viability (A549; first compound 0.4 µM) | relative viability (A549; first compound 4 µM) | relative viability (NCI-H520; first compound 0.01 µM) | relative viability (NCI-H520; first compound 0.03162 µM) | relative viability (NCI-H520; first compound 0.3162 µM) | relative viability (NCI-H1623; first compound 0.01 µM) | relative viability (NCI-H1623; first compound 0.03162 µM) | relative viability (NCI-H1623; first compound 0.3162 µM) | relative viability (NCI-H1648; first compound 0.03162 µM) | relative viability (NCI-H1648; first compound 0.3162 µM)
C[C@@H]1CN(CC(=O)Nc2ccc3c(c2)Cc2cccc(-c4cc(=O)cc(N5CCOCC5)o4)c2S3)C[C@H](C)O1 + CCNC(=O)c1noc(-c2cc(C(C)C)c(O)cc2O)c1-c1ccc(CN2CCOCC2)cc1 [Luminespib] (partner 0.01 µM) | 0.249 | 0.256 | 0.224 | 0.221 | 0.439 | 0.473 | 0.442 | 0.561 | – | – | – | – | – | – | – | – | – | – | – | – | – | – | – | –
C[C@@H]1CN(CC(=O)Nc2ccc3c(c2)Cc2cccc(-c4cc(=O)cc(N5CCOCC5)o4)c2S3)C[C@H](C)O1 + COc1cccc2cc(-c3nc([C@H]4CC[C@H](C(=O)O)CC4)n4ncnc(N)c34)[nH]c12 [OSI-027] (partner 0.5 µM) | 0.272 | 0.227 | 0.221 | 0.264 | 0.411 | 0.413 | 0.412 | 0.381 | 0.247 | 0.258 | 0.242 | 0.235 | – | – | – | – | – | – | – | – | – | – | – | –
C[C@@H]1CN(CC(=O)Nc2ccc3c(c2)Cc2cccc(-c4cc(=O)cc(N5CCOCC5)o4)c2S3)C[C@H](C)O1 + Cc1cc(Nc2cc(N3CCN(C)CC3)nc(Sc3ccc(NC(=O)C4CC4)cc3)n2)n[nH]1 [Tozasertib] (partner 0.1 µM) | 0.474 | 0.454 | 0.356 | 0.448 | 0.461 | 0.409 | 0.406 | 0.417 | 0.3 | 0.421 | 0.542 | 0.395 | – | – | – | – | – | – | – | – | – | – | – | –
C[C@@H]1CN(CC(=O)Nc2ccc3c(c2)Cc2cccc(-c4cc(=O)cc(N5CCOCC5)o4)c2S3)C[C@H](C)O1 + Cc1nc(Nc2ncc(C(=O)Nc3c(C)cccc3Cl)s2)cc(N2CCN(CCO)CC2)n1 [Dasatinib] (partner 0.075 µM) | 0.216 | 0.227 | 0.248 | 0.136 | 0.57 | 0.555 | 0.51 | 0.588 | – | – | – | – | – | – | – | – | – | – | – | – | – | – | – | –
C[C@@H]1CN(CC(=O)Nc2ccc3c(c2)Cc2cccc(-c4cc(=O)cc(N5CCOCC5)o4)c2S3)C[C@H](C)O1 + N=C(N)NC(=N)NCCc1ccccc1 [Phenformin] (partner 250 µM) | 0.464 | 0.732 | 0.312 | 0.452 | 0.523 | 0.617 | 0.54 | 0.61 | – | – | – | – | 0.106 | 0.197 | 0.252 | 0.138 | – | – | – | – | – | – | – | –
CC(C)Oc1cc(Nc2nc(N[C@@H](C)c3ccc(F)cn3)ncc2Cl)n[nH]1 [AZ23] + CCNC(=O)c1noc(-c2cc(C(C)C)c(O)cc2O)c1-c1ccc(CN2CCOCC2)cc1 [Luminespib] (partner 0.01 µM) | – | – | – | – | – | – | – | – | – | – | – | – | – | – | – | – | 0.236 | 0.22 | 0.212 | 0.476 | 0.49 | 0.529 | – | –
CC(C)Oc1cc(Nc2nc(N[C@@H](C)c3ccc(F)cn3)ncc2Cl)n[nH]1 [AZ23] + COc1cccc2cc(-c3nc([C@H]4CC[C@H](C(=O)O)CC4)n4ncnc(N)c34)[nH]c12 [OSI-027] (partner 0.5 µM) | – | – | – | – | – | – | – | – | – | – | – | – | – | – | – | – | 0.276 | 0.281 | 0.278 | 0.401 | 0.401 | 0.43 | 0.258 | 0.256
CC(C)Oc1cc(Nc2nc(N[C@@H](C)c3ccc(F)cn3)ncc2Cl)n[nH]1 [AZ23] + Cc1cc(Nc2cc(N3CCN(C)CC3)nc(Sc3ccc(NC(=O)C4CC4)cc3)n2)n[nH]1 [Tozasertib] (partner 0.1 µM) | – | – | – | – | – | – | – | – | – | – | – | – | – | – | – | – | 0.455 | 0.485 | 0.475 | 0.402 | 0.427 | 0.504 | 0.542 | 0.502
